Source: patent EP0449955B1, “SYNTHETIC HIV-LIKE PEPTIDES, THEIR COMPOSITIONS AND USES” (CLARITY TECHNOLOGIES INCORPORATED, priority 1988, dated 1996)
Entries after “also recorded” stand apart in the source; their conditions may differ.

Key:
antibodies to HIV-1 [1] = experiment: EIA of HIV-1 gp41 peptide-protein conjugates against serum pools; assay type: binding, human; conditions: peptide conjugated via C-terminus to BSA (SMCC), coated at 10 micrograms peptide/ml; 1:101 dilution of HIV+ serum pool; Figure 1
Method: (§1) The free peptides or peptide-protein conjugates of Figures 1-13 were initially screened for immunoreactivity by coating each well of polystyrene microtiter EIA plates (Costar, Cambridge, Massachusetts, U.S.A.) with 0.2 ml amounts of concentrations of 5-50 micrograms/ml peptide in Tris buffer, 10 mM, pH 8.0, at 4°C overnight. Peptides or peptide-protein conjugates showing immunoreactivity by EIA were then further diluted for coating to determine the minimal concentrations required that allowed maximal immunoreactivity with antibodies to HIV, and minimal nonspecific reactivity with normal sera. The EIA tests were performed as follows: The coating solution was removed from each well and the wells were blocked at 37°C for 30 minutes with a solution of 50 mM phosphate, 100 mM NaCl, pH 7.4, 1% BSA, 0.5% gelatin. The wells were then aspirated dry with a microtiter plate washer and washed 3 times with a solution of 50 mM phosphate, 100 mM NaCl, .05% Tween 20, (trademark) pH 7.4 (PBST). A 1:101 dilution (in PBST with 1% BSA, 1% NRS) of the primate serum to be tested was then added as 0.2 ml to each washed well and the plates were incubated at 37°C for 30 minutes. The plates were then washed x 3 with PBST, and 0.2 ml amounts of a 1:2000 dilution of goat anti-human (GAH) peroxidase enzyme conjugate (Organon Teknika, Cappel, Melvern, Pennsylvania, U.S.A.) that recognized human IgG, IgA, and IgM were added to each well, and the plates were incubated for 30 minutes at 37°C. The plates were then washed x 3 with PBST and incubated with 0.2 ml/well substrate consisting of 0,1M citric acid pH 5.2, 0.1 mg/ml o-phenylene diamine, 0.01% H₂O₂, at room temperature in the dark for 10 minutes. Reactions were stopped with 50 microliters of 4N H₂SO₄, and the color development was quantitated in a Multiscan plate reader at A₄₉₂. In each series of experiments positive and negative controls were included, and all tests were done in duplicate or quadruplicate. Most peptides and peptide conjugates were initially screened against a 1:101 dilution of pools of HIV positive or HIV negative sera, and the same serum pool was used to allow quantitative comparison of immunoreactivity of different free peptides or peptide-protein conjugates.
The peptides in Figures 1 and 5 were synthesized as described in Example 1 and conjugated to KLH or BSA as described in Example 2. These peptide-protein conjugates were coated to polystyrene microtiter plates all at a concentration 10 micrograms peptide/ml and evaluated for immunoreactivity as described in Example 3, using a 1:101 dilution of a pool of sera (HIV+/SIV+, respectively) containing antibodies to HIV-1 (Figure 1) or to HIV-2 (Figure 5), as well as pooled serum (HIV-/SIV-, respectively) containing no antibodies to HIV-1 or HIV-2. […] Since sera from patients infected with HIV-2 are relatively unavailable in the United States, the immunoreactivity of HIV-2 synthetic peptides was assessed using serum from macaques infected with SIV, obtained from the University of Washington Primate Center, Seattle, Washington, U.S.A. The AA sequence of SIV is nearly identical to HIV-2 in the region of the peptides synthesized (see Myers et al., Human Retroviruses and AIDS, 1988. A compilation of nucleic acid and amino acid sequences. Los Alamos National Laboratory, Los Alamos, New Mexico, 87545, USA).

antibodies to HIV-1 [2] = experiment: EIA of peptide-carrier conjugates with individual human sera; assay type: binding; conditions: BSA-SMCC conjugate; for immunoreactivity with positive sera: 98 sera containing antibodies to HIV-1, Figures 10B, 10C
Method: as §1
Figure 10A illustrates the immunoreactivity of synthetic natural peptides 2S06 and 2S09 (Figure 1) when conjugated via their C-terminal GC spacer to KLH using the heterobifunctional linker MBS. […] However, the immunoreactivity of many of the positives was low (A₄₉₂ less than 1.0), and some of the negative samples had A₄₉₂ values slightly above 0.20, resulting in minimal discrimination between negatives and positives. This poor discrimination led to a search for an improved carrier protein and/or linker.
Figure 10B illustrates the reactivity of synthetic natural peptide IWGCSGKLICTTAVPGC (2S09) when conjugated through its C-terminus to BSA via the heterobifunctional linker SMCC. […] Improvement in assay performance as compared with results of Example 5A is noted with respect to negative samples having lower A₄₉₂ values, and most positive samples having higher A₄₉₂ values. […] Because of the possibility that some of the low responsiveness might be due to antigenic differences of genetic variants in the region of this epitope, as reported for HIV isolates from Zaire (Gnann et al., Science 237:1346-1349, 1987), the natural sequence variant peptide 5S67 (Figure 3) was synthesized, chemically linked to BSA with SMCC, and tested against the same sera, plus one additional negative serum sample (Figure 10C). […] This instigated a search for unnatural sequence variants of peptide 2S09 that would retain high immunoreactivity with most sera that contained antibodies to HIV-1, and yet retain low reactivity with sera devoid of antibodies to HIV. […]

antibodies to HIV-1 [3] = experiment: Rapid test with peptide-BSA-colloidal gold conjugate; assay type: binding, human
Method: (§2) A test device for performing rapid tests in less than 15 minutes was prepared as illustrated in Figures 14 and 15. Referring to Figures 14 and 15, the device comprises a plastic slide 10 (approximately 1 inch wide by 3/16 inch thick by 3 1/4 inches long) having a plurality of funnel-like wells 12, each having a capacity of approximately 200 microliters, an upper inflow tract rim 14 diameter of approximately 9 mm and a lower outflow tract 16 diameter of approximately 2 mm. The undersurface of the outflow tract 16 is designed so as to provide a smooth even contact with a membrane filter 18 placed next to it in the apparatus. The membrane filter separates reactants passing through it by size, retaining those particles above a predetermined size, such as above 0.22 µm, or above 0.45 µm in size (depending upon the specific filter chosen), though other filters placed into the apparatus might separate by binding or affinity (i.e. nitrocellulose, glass). […]
An 8 ml quantity of peptide IWGCSGKLICTTAVPGC (A280nm∼=0.50) conjugated via its C-terminus and SMCC to BSA was dialyzed overnight against 2L of DI water at 4°C. […] The A₅₈₀ of each well was determined and the lowest values, indicating best protection, were at pH6.1>pH6.0>> other pH's. Using larger amounts of gold sol at pH6.1 the minimal amount of protective protein was determined to be 70 microliters of the dialyzed peptide-BSA (A₂₈₀ = 0.45). […]

antibodies to HIV-1 [4] = experiment: Rapid EIA with latex-immobilized peptide reagents, HIV-1; assay type: binding, human; conditions: passive adsorption
Method: as §2
The mixture was shaken gently a room temperature for 1 hour, and then washed 3 times by centrifugation at 9,000 x g for 10 minutes, removal of supernate, and resuspension of the pellet in a 12-14 ml volume of deionized water, pH 4.5. […] It was determined that this stock solution of latex coated with peptide-BSA conjugate could be diluted 1:10-1:30 with latex diluent buffer for use in the rapid EIA described below. […]

[5] = EIA of 4S36 as free peptide or BSA conjugate on 3 polystyrene microtiter plates; assay type: binding, human; conditions: BSA-peptide conjugate, plastic type 1; Figure 9
Text: Antigenicity of each unnatural peptide is indicated by its ability as a free peptide to inhibit binding of HIV-1 antibodies to a BSA conjugate of peptide 2S09. […] Antigenicity of each peptide is indicated by its ability as a free peptide to inhibit binding of HIV-1 antibodies to a BSA conjugate of either 2S09 or peptide 5S67, a natural sequence variant reported in HIV-1 isolates from Zaire (Gnann et al., Science 237:1346-1349, 1987; and Alizon et al., Cell 46:36, 1986). […] Antigenicity of each peptide is indicated by its ability as a free peptide to inhibit binding of SIV/HIV-2 antibodies to a BSA conjugate of peptide 2S27. […] AA variants of peptide 2S27 are highlighted. […] Different groups of peptides were initially conjugated to BSA as indicated and the conjugates of each pool were first tested. […] All peptides were utilized C-terminally conjugated to BSA. […]
The free peptides or peptide-protein conjugates of Figures 1-13 were initially screened for immunoreactivity by coating each well of polystyrene microtiter EIA plates (Costar, Cambridge, Massachusetts, U.S.A.) with 0.2 ml amounts of concentrations of 5-50 micrograms/ml peptide in Tris buffer, 10 mM, pH 8.0, at 4°C overnight. […] Reactions were stopped with 50 microliters of 4N H₂SO₄, and the color development was quantitated in a Multiscan plate reader at A₄₉₂. […]

Row | Sequence | immunoreactivity with HIV-1 antibodies (antibodies to HIV-1 [1]) | immunoreactivity with positive sera (antibodies to HIV-1 [2]; 11) | result with positive serum samples (red-purple dots) (antibodies to HIV-1 [3]; 20 sera containing antibodies to HIV-1, diluted 1:100) | result with negative sera (antibodies to HIV-1 [3]; 20 sera without antibodies to HIV-1) | reactivity with sera that did not contain antibodies to HIV-1 (antibodies to HIV-1 [2]; 85-87 negative sera, Figures 10C, 11) | A492 values of positive samples (none less than) (antibodies to HIV-1 [2]; 98 positive samples, Figure 11) | performance of free peptide passively adsorbed to latex (antibodies to HIV-1 [4]) | positive/negative ratios [5]
1 | IWGCSGKLICTTAVPGC [2S09] | maximally immunoreactive; also recorded: higher reactivity; also recorded: Significant immunoreactivity; also recorded: slightly superior immunoreactivity | very low immunoreactivity | 19 of the 20 | only the white color of the underlying membrane remained |  |  |  | 
2 | VWGCSGKLICTTAVPGC [4S36] |  | striking increase in immunoreactivity of the low positives |  |  | remained acceptably low | ≥ 1.0 | produced an immunoreactive reagent | ≥ 20
